Source: patent US20130310347A1, “MULTI-MODALITY MOLECULAR IMAGING HIGH-THROUGHPUT ASSAY FOR IDENTIFYING HEAT SHOCK PROTEIN 90 (HSP90) INHIBITORS” (The Board of Trustees of the Leland Stanford Junior …, priority 2012, published 2013)

How the values were obtained:
[1] = system: endogenous Hsp90(α/β)/p23 interactions; experiment: Co-immunoprecipitation of Hsp90(α/β)/p23; assay type: cell-based, human; conditions: 5 μM, 24 h, 293T cells
Procedure: FIG. 5B is a digital image of a western blot analysis illustrating the effects of compounds CP1, CP9 and CP18 on disruption of Hsp90α/p23 and Hsp90β/p23 as determined by co-immunoprecipitation using antibodies against p23 and probing with Hsp90α- and Hsp90β-specific antibodies. The blot was probed with antibodies against p23 to ensure similar immunoprecipitation efficiency. Cells treated with 2 μM of PU-H71 served as a positive control.
Cells treated with PU-H71 (2 μM) served as a positive control.
Cells treated with 2 μM of PU-H71 served as a positive control. Western blotting of Hsp70, phosphorylated and total Akt and co-immunoprecipitation of Hsp90(α/β)/p23 interactions was performed as described Inglese et al., (2006) Proc. Nat. Acad. Sci. U.S.A. 103: 11473-11478, incorporated herein by reference in its entirety. The expression of Raf-1 was determined using rabbit polyclonal antibodies against Raf-1 (0.5 μg/ml, Abcam).

[2] = system: 293T cells stably expressing split RL reporters; experiment: Cell Titer-Blue cell proliferation assay; assay type: cell-based; conditions: Homo sapiens, HEK-293T
Procedure: Inhibition of cell proliferation at 20 μM was determined by cell-titer blue assays and toxic compounds were eliminated. The IC50 values for inhibition of bioluminescence signals (BLI) in cells stably expressing Hsp90(α/β)/p23 split RL reporters and the inhibition of cell proliferation for the top 19 compounds are shown in Table 1, Example 15, and their structures are shown in FIGS. 1A-1D.
Baseline complemented RL activities were determined 90 mins after addition of 20 μl of ENDUREN® (10 μM final concentration) (Promega, Madison, Wis.) using the Analyst GT (Molecular Device, Sunnyvale, Calif.), with an acquisition time of 0.2 sec per well. Cells were incubated with compounds for 24 h prior to re-determination of complemented RL activities, and normalized to the mean RL activities of untreated cells in columns 1-2. Another small molecule chemical library with 30,176 compounds (SPECS, Wakefield, R.I.) was also used in screening modulators of Hsp90(α/β)/p23 inhibitors (at 8.3 μM, one drug per well for initial screening). For dose response/confirmation assay the compounds were tested in duplicate in an 8 point (0.156-20 μM) dose response assay for RL activities for both Hps90(α/β)/p23 interactions. The effect of each compound on cell proliferation at 20 μM was determined using Cell Titer-Blue assay in duplicate wells. […]

[3] = system: 1975 lung cancer, 2008 ovarian cancer and HT29 colon cancer cells; experiment: 3H-FDG cell uptake (glucose metabolism); assay type: cell-based; conditions: 24 h post treatment
Procedure: (§1) FIG. 6B is a graph illustrating the effect of CP9 on glucose metabolism determined in 1975 lung cancer, 2008 ovarian cancer and HT29 colon cancer cells by ^3H-FDG cell uptake studies 24 h post treatment. Normal MEFs were used as a control. Results were expressed as mean counts/μg protein/initial dose±S.E.M. *, p<0.05 vs. carrier control treated cells.
Inhibition of glucose metabolism by CP9 in cell culture was monitored by cell uptake studies with ^3H-fluoro-deoxyglucose (^3H-FDG) as described in Dandekar et al. ((2007) J. Nucl. Med. 48: 602-607) as shown in FIG. 6B. PU-H71 was used as a positive control.
(§2) To determine the downstream effects of lead compounds on glucose metabolism, 1.5×10^5 293T, 1975 and 2008 and MEFs cells plated in 24-well plate for 24 h, prior to treatment with different concentrations of CP9 for 24 or 48 h and subsequent incubation with 1 μCi of ^3H-FDG in 500 μl of medium for 1 h at 37° C. Cells treated with 2.5 μM of PU-H71 served as a positive control. The total counts in each sample were normalized to that of the dose added to each well and to the amount of protein, and expressed as mean counts/dose/μg protein±S.E.M. Likewise, the effect of CP9 on cell proliferation was determined using 1 μCi of ^3H-FLT per well after 2 h of incubation at 37° C.

[4] = system: Hsp90 client proteins (phosphorylated/total Akt, Raf-1); experiment: Ex vivo western blotting of excised tumors; assay type: in vivo, mice; conditions: western blotting after last imaging time point; p>0.05
Procedure: To determine if the inhibition of Hsp90(α/β)/p23 interactions also leads to degradation of Hsp90 client proteins in mice, tumors were excised from sacrificed mice after the last PET/CT imaging time point. The expression of phosphorylated/total Akt and Raf-1 in tumor lysates was determined by western blotting. α-tubulin was used as a loading control.
Mice were euthanized after the last imaging time points and tumors were excised and homogenized in tissue extraction buffer in the presence of HALT® protease and phosphatase inhibitors (all from Pierce, Ill.). Protein concentrations were determined by Biorad Protein Dc assay. The expression of phosphorylated/total Akt, Raf-1 and […] were determined by western blotting as described in Chan et al., (2008) Cancer Res. 68: 216-226. Western blot images were quantitated using NIH Image J, and expressed as the ratio of target protein/α-tubulin for each treatment group.

1975 cells = experiment: Alamar Blue cell proliferation; assay type: cell-based; conditions: 1975, 24 h
Procedure: FIG. 6A is a series of graphs illustrating the effect of CP9 on cell proliferation determined by an Alamar Blue assay. The indicated cancer cell lines were treated with different concentrations of CP9 for 24 h prior to incubation with Alamar blue for 4 h. The Hsp90 inhibitors PU-H71 and 17AAG were used as positive controls. Emissions at 570 nm in CP9-treated cells were normalized to that of carrier control-treated cells. Results are expressed as normalized cell proliferation±S.E.M.
CP9 had no effect on proliferation of normal MEFs. Since CP9 led to decrease in phosphorylated Akt (FIGS. 5A and 10A-10C), it was expected to inhibit glucose metabolism through relief of inhibition of glycogen synthase kinase […] (Nair & Olanow (2008) J. Biol. Chem. M707238200; Dandekar et al., (2007) J. Nucl. Med. 48: 602-607).

normal MEF cells = experiment: 3H-FDG cell uptake (glucose metabolism); assay type: cell-based, mouse; conditions: 24 h post treatment
Procedure: as §1
To determine the specificity of CP9 in inhibition of glucose metabolism, normal MEF cells were used as a control.
as §2

SMILES: Cc1cc(NC(=O)CSc2nc(-c3cccs3)cc(C(F)(F)F)n2)no1 [CP9, N-(5-methylisoxazol-3-yl)-2-(4-(thiophen-2-yl)-6-(trifluoromethyl)pyrimidin-2-ylthio)acetamide]
- disruption of endogenous Hsp90(α/β)/p23 interactions by co-immunoprecipitation [1]: disruption of endogenous Hsp90(α/β)/p23 interactions
- inhibition at 20 µM [2]: 29%
- 3H-FDG uptake in the cancer cells [3]: decreased
- Hsp90 client proteins in excised tumors relative to carrier control [4]: did not lead to significant degradation
- inhibition of cell proliferation vs PU-H71 and 17-AAG (1975 cells): more effective than PU-H71 and 17-AAG
- 3H-FDG uptake in MEFs (normal MEF cells): without significantly affecting
